ChEMBL document CHEMBL1125335 (J Med Chem, 1992)

Assays:
Adenosine receptor A2a = Adenosine receptor A2a (Cavia porcellus, UniProt P46616); assay: Affinity against adenosine A2 receptor in the brain membranes measured by the displacement of [3H]-CPX; type: cell membranes, Membrane
Adenosine receptor A1 = biological target: T1, Adenosine receptor A1 (Cavia porcellus, UniProt P47745); assay: Affinity against adenosine A1 receptor in the brain membranes by the displacement of [3H]CPX.; type: cell membranes, Membrane
T1 sequence (P47745 whole entry): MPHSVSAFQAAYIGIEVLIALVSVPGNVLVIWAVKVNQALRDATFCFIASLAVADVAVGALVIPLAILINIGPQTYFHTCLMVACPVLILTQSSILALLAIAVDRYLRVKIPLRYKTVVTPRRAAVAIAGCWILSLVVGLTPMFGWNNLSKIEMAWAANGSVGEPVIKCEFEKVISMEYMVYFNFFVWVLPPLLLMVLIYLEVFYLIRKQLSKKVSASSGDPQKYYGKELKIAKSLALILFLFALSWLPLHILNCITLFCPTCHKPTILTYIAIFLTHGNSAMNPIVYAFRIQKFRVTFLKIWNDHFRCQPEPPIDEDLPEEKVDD

[1] = biological target: T2, Adenosine receptor A1 (Cavia porcellus) (UniProt P47745); assay: Positive chronotropic effect on isolated guinea pig right atrium (heart stimulation).; type: functional, tissue-based; conditions: Cardiac atrium
T2 sequence (whole entry): T1 sequence (P47745 whole entry)

[2] = Ratio of stimulatory activity in right atrium to relaxant activity in tracheal muscle; type: functional, Cardiac atrium
[3] = Inhibition of c-AMP phosphodiesterase activity in guinea pig tracheal muscle
[4] = Inhibitory activity against c-AMP phosphodiesterase in guinea pig tracheal muscle.
Cavia porcellus [5] = assay: In vivo positive chronotropic effect on isolated guinea pig right atrium; type: functional, Cardiac atrium
Cavia porcellus [6] = assay: In vivo reduction of acetylcholine-induced bronchospasm in guinea pigs by intraduodenal dose; type: functional
Adenosine A2 receptor = Adenosine A2 receptor (Homo sapiens, UniProt P29275+P29274); assay: Affinity against adenosine A2 receptor in brain membranes by displacement of [3H]CPX; type: cell membranes, Cavia porcellus, Membrane

Chain of Adenosine receptor A2a (P46616 whole entry): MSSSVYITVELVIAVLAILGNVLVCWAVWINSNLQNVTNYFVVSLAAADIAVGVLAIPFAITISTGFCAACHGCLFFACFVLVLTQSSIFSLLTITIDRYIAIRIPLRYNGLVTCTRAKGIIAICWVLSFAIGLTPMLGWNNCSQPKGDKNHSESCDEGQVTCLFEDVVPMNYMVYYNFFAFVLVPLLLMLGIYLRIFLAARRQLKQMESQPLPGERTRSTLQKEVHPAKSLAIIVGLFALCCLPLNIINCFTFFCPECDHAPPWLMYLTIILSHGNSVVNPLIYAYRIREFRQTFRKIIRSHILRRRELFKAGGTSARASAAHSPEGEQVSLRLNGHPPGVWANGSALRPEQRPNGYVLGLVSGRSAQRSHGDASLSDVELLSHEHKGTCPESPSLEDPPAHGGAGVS

| SMILES | Ki (Adenosine receptor A2a) [µM] | Ki (Adenosine receptor A1) [µM] | EC15 [1] [µM] | Broncho selectivity [2] | other results |
| --- | --- | --- | --- | --- | --- |
| CCn1c(=O)[nH]c2nc[nH]c2c1=O | 34 | 9.8 | – | – | – |
| CCCn1c(=O)n(CC)c(=O)c2[nH]cnc21 | 3.9 | 1.4 | 6.1 | 4.7 | Ki [3]: 24.1 µM |
| CCCCn1c(=O)n(C)c(=O)c2[nH]cnc21 | 4.8 | 1.9 | 2.2 | 1.7 | Ki [4]: 10.2 µM |
| CCCn1c(=O)[nH]c2nc[nH]c2c1=O | 23.4 | 3.3 | – | – | – |
| CCCn1c(=O)[nH]c(=O)c2nc[nH]c21 [ENPROFYLLINE] | – | – | 18.3 | – | ED15 (Cavia porcellus [5]): 95.1 mg kg-1 i.d.; ED50 (Cavia porcellus [6]): 25.7 mg/kg |
| O=c1[nH]c(=O)c2nc[nH]c2[nH]1 | – | – | > 100 | – | – |
| CCCn1c(=O)[nH]c(=O)c2c1ncn2CC | – | 40.4 | > 100 | 12 | Ki [4]: 13.2 µM |
| CCn1c(=O)[nH]c2[nH]cnc2c1=O | – | – | > 100 | – | – |
| CCn1c(=O)c2nc[nH]c2n(C)c1=O | – | 9.8 | 34 | – | – |
| CCCn1c(=O)[nH]c2[nH]cnc2c1=O | – | – | > 100 | – | – |
| CCCn1c(=O)c2nc[nH]c2n(C)c1=O | – | – | 36.2 | 3.7 | Ki [3]: 26 µM |
| Cn1c(=O)c2[nH]cnc2n(C)c1=O | – | – | 62 | – | – |
| CCCn1c(=O)c2nc[nH]c2n(CCC)c1=O | – | 0.2 | 20 | – | – |
| CCCCn1c(=O)[nH]c2nc[nH]c2c1=O | 15.4 | 3 | – | – | – |
| CCCn1c(=O)n(C)c(=O)c2c1ncn2CC | – | 14.2 | > 100 | – | – |
| CCCCn1c(=O)c2nc[nH]c2n(CCC)c1=O | – | – | 29 | – | ED15 (Cavia porcellus [5]): >100 mg kg-1 i.d.; ED50 (Cavia porcellus [6]): 2.87 mg/kg |
| CCCCn1c(=O)[nH]c2[nH]cnc2c1=O | – | – | > 100 | – | – |
| O=c1[nH]c(=O)c2[nH]cnc2[nH]1 [XANTHINE] | – | > 200 | – | – | – |
| Cn1c(=O)[nH]c2[nH]cnc2c1=O [1-METHYLXANTHINE] | – | – | > 100 | 1.3 | Ki [3]: 163 µM |

| SMILES | Ki (Adenosine receptor A2a) [µM] | Ki (Adenosine receptor A1) [µM] | EC15 [1] [µM] | Broncho selectivity [2] | other results |
| --- | --- | --- | --- | --- | --- |
| CCCn1c(=O)[nH]c(=O)c2c1ncn2C | – | 90.6 | > 100 | – | – |
| CCCn1cnc2c1c(=O)n(C)c(=O)n2CCC | 43.8 | 9.4 | 45.2 | 9 | Ki [3]: 30.8 µM |
| CCCCn1cnc2c1c(=O)[nH]c(=O)n2CCC | – | 12.1 | > 100 | 7.1 | Ki [3]: 36.5 µM |
| Cn1c(=O)[nH]c2nc[nH]c2c1=O [1-METHYLXANTHINE] | 67.1 | 11.5 | – | – | – |
| CCn1c(=O)[nH]c(=O)c2[nH]cnc21 | – | 117 | > 100 | – | – |
| CCn1c(=O)n(C)c(=O)c2[nH]cnc21 | 25.4 | 7.6 | 28.5 | – | – |
| CCCn1c(=O)n(C)c(=O)c2[nH]cnc21 | 8 | 1.9 | 3.3 | 2.1 | Ki [3]: 10.6 µM |
| CCCn1c(=O)c2[nH]cnc2n(C)c1=O | – | 3.4 | – | – | – |
| CCCn1cnc2c1c(=O)[nH]c(=O)n2CCC | – | 18.2 | > 100 | >6.3 | Ki [3]: 35 µM |
| CCCCn1c(=O)c2nc[nH]c2n(C)c1=O | – | 4.3 | 90.5 | – | – |
| CCCn1c(=O)n(C)c(=O)c2c1ncn2C | 20.1 | 14.5 | 45.4 | – | – |
| CCCn1c(=O)n(CC)c(=O)c2c1ncn2C | – | 11.8 | 30 | 4 | Ki [4]: 19.4 µM |
| CCCCn1cnc2c1c(=O)n(C)c(=O)n2CCC | 15.3 | 7.3 | > 100 | 32.3 | Ki [3]: > 200 µM |
| CCCCn1c(=O)c2[nH]cnc2n(CCC)c1=O | 4.1 | 0.02 | – | – | – |
| CCCn1c(=O)c2c(ncn2C)n(CCC)c1=O | – | 7.7 | 45.8 | – | – |
| CCCCn1c(=O)[nH]c(=O)c2[nH]cnc21 | – | 21.4 | 17 | 2.1 | Ki [3]: 32 µM |
| CCCCn1c(=O)c2c(ncn2C)n(CCC)c1=O | – | 6 | > 100 | 71.4 | ED15 (Cavia porcellus [5]): >100 mg kg-1 i.d.; ED50 (Cavia porcellus [6]): 2.34 mg/kg; Ki [4]: 30.1 µM |
| Cn1c(=O)c2nc[nH]c2n(C)c1=O.O [THEOPHYLLINE] | – | – | – | – | ED15 (Cavia porcellus [5]): 20.2 mg kg-1 i.d.; ED50 (Cavia porcellus [6]): 23.4 mg/kg |
| Cn1c(=O)[nH]c(=O)c2[nH]cnc21 [3-METHYLXANTHINE] | – | – | > 100 | – | Ki (Adenosine A2 receptor): 133 µM |
